In assay [1] the test system is PYK2 tyrosine phosphorylation in SF767 gliomas. Put plainly: PYK2 tyrosine phosphorylation in SF767 gliomas (immunoprecipitation, anti-phosphotyrosine western blot). The settings on record: for HRG-induced tyrosine phosphorylation of PYK2: 5 μg/ml HRG 20 min, pretreatment with PP1 5 μM 30 min, AG825 10 μM 1 hour or Wortmannin 100 nM 30 min. Type of assay: cell-based, human. The protocol: (§1) SF767 gliomas were pretreated with 5 μM PP1 for 30 minutes and stimulated either with 5 μg ml^−1 Heregulin (HRG, left panel) or 5 μM lonomycin (IONO, right panel) for 20 min and 5 min, respectively. b, PYK2 coprecipitation with HER3 depends on the HER2 kinase activity, and tyrosine phosphorylation of PYK2 is proportional to its binding to HER3. SF767 gliomas were pretreated with 10 μM AG825 for 1 hour and stimulated with 5 μg ml^−1 Heregulin for 20 min (HRG). Cell lysates were subjected to immunoprecipitation (IP) using polyclonal anti-PYK2 (α-PYK2) or monoclonal anti-HER3 (α-HER3) antibodies. Tyrosine phosphorylation level was analysed by western blotting (WB) with monoclonal anti-phosphotyrosine antibody (α-4G10) (a, upper panels, and b, upper panel). Equal loading of proteins was checked by reblotting with α-PYK2 and α-HER3 antibodies, respectively (a, lower panels, and b, middle and lower panels). PYK2 coprecipitating with HER3 was detected by probing the membrane with α-PYK2 antibody (b, middle panel, lanes 1-4). Unstimulated cells are indicated by NS.
SF763, SF767 or transfected HEK293 cells were either left untreated or were pretreated with PP1 (10 μM), AG825 (10 μM), Wortmannin (WT) (100 nM) and PD98059 (25 μM) for 30-60 min following stimulation with 5 μg/ml recombinant human HRG for 20 min or with 5 μM IONO for 5 min at 37° C. Upon HRG or IONO stimulation, the cells were lysed on ice in a lysis buffer (50 mM HEPES pH 7.5, containing 150 mM NaCl, 1 mM EDTA, 10% (v/v) glycerol, 1% (v/v) Triton X-100, 1 mM sodium fluoride, 1 mM phenylmethylsulfonyl fluoride, 1 mM sodium orthovanadate, 1 mM β-glycerolphosphate, […] aprotinin). Crude lysates were centrifuged at 12500 g for 20 min at 4° C. For immunoprecipitations, the appropriate antiserum and 30 μl of protein A-Sepharose (Pharmacia) was added to the cleared lysate and incubated for 3 h at 4° C. […]
(§2) Proteins were fractionated by SDS-PAGE and electrophoretically transferred to nitrocellulose filters. […] The substrate reaction was detected on Kodak X-Omat film. […]
(In general: In western blotting, separated proteins are transferred to a membrane and probed.)

The subject of assay [2] is PYK2 coprecipitating with HER3 in SF767 gliomas. Description: PYK2 coprecipitation with HER3 in SF767 gliomas. The settings on record: AG825 10 μM 1 hour, with or without HRG. Type of assay: cell-based, human. The method, then:
as §1, with “NS. […]” for “NS.”
as §2

In assay [3] the test system is SHC tyrosine phosphorylation in SF767 gliomas. Description: SHC tyrosine phosphorylation in SF767 gliomas. Type of assay: cell-based, human. As to conditions: AG825 10 μM 1 hour, 5 μg/ml HRG 20 min. The protocol:
(§3) FIG. 5: PYK2 mediates mitogenicity upon HRG stimulation. a, b, SF767 gliomas were pretreated either with 10 μM AG825 for 1 hour or with 100 nM Wortmannin for 30 min (WT), and then stimulated with 5 μg ml^−1 Heregulin for 20 min (HRG). Tyrosine phosphorylation of SHC was elevated by HRG and attenuated by pretreatment with AG825, but not fully abrogated (a). The same holds also for ERK-2 activity, when cells were pretreated either with AG825 or with WT (b). Cell lysates were used for immunoprecipitation with polyclonal anti-SHC (α-SHC) (a), or polyclonal anti-Erk-2 (α-ERK-2) antibodies (b). α-SHC-immunocomplexes were blotted with a monoclonal anti-phosphotyrosine antibody (α-4G10) (a), whereas α-ERK-2 immunocomplexes were subjected to MAP-kinase assays (b). Phosphorylated MBP is indicated by an arrow. c, Tetracyclin-inducible pheochromocytoma PC12 cells, either stably expressing PYK2-KM (Tet−), or only endogenous PYK2 (Tet+), were pretreated either with 100 nm Wortmannin for 30 min (WT), or 10 μM AG825 for 1 hour prior to stimulation with 5 μg ml^−1 Heregulin for 20 min (HRG). Basal ERK-2 activity is independent of HER2 and Pl3-K, whereas the HRG-stimulated ERK-2 activity is dependent on HER2, Pl3-K and PYK2. […]
as §2

Assay [4] has as its system ERK-2 activity in SF767 gliomas. Put plainly: MAP-kinase assay on ERK-2 immunocomplexes from SF767 gliomas. As to conditions: AG825 10 μM 1 hour or WT 100 nM 30 min, 5 μg/ml HRG 20 min. Type of assay: cell-based, human. The protocol: as §3, with “PYK2. Overexpression of PYK2-KM leads to a general attenuation of ERK-2 activity (compare Tet− with Tet+ bands).” for “PYK2.”

Assay [5] concerns ERK-2 activity in PC12 cells. Description: MAP-kinase assay on ERK-2 immunocomplexes from tetracyclin-inducible PC12 cells (Tet-off PYK2-KM). Type of assay: cell-based, rat. As to conditions: AG825 10 μM 1 hour, WT 100 nM 30 min or PYK2-KM expression (Tet−); for HRG-stimulated ERK-2 activity: 5 μg/ml HRG 20 min; for Basal ERK-2 activity: unstimulated.
The subject of assay [6] is Pl3-K activity in PC12 cells. Put plainly: Pl3-K assay on anti-phosphotyrosine immunoprecipitates from tetracyclin-inducible PC12 cells. As to conditions: PC12 Tet-off; 5 μg/ml HRG 20 min; AG825 10 μM 1 hour or PYK2-KM expression (Tet−). Type of assay: cell-based, rat. The protocol: FIG. 6: PYK2 enhances Pl3-K activity upon HRG stimulation. a, Tetracyclin-inducible pheochromocytoma […], either stably expressing PYK2-KM (Tet−) or only endogenous PYK2 (Tet+), were pretreated either with 100 nm Wortmannin for 30 min (WT), or 10 μM AG825 for 1 hour prior to stimulation with 5 μg ml^−1 Heregulin for 20 min (HRG). Lysates were subjected to α-4G10 immunoprecipitation and Pl3-K assays were performed (see Methods section). Pl3-K activity is strongly dependent on PYK2 upon HRG stimulation, and is diminished by AG825. MAP-kinase and Pl3-kinase assays were performed as described previously (49, 50).

In assay [7] the test system is HER2 tyrosine phosphorylation in PC 12 cells. Put plainly: HER2 tyrosine phosphorylation in PC 12 cells. Type of assay: cell-based, rat. As to conditions: 10 μM AG825, HRG stimulation. The protocol:
(§4) FIGS. 13, 14: PC 12 cells were left untreated or pretreated either with 10 μM AG825, 50 μM PD98059 or both and subsequently stimulated with HRG. Immunoprecipitations of HER2 (α-HER2) or of tyrosyl-phosphorylated proteins (α-PY) were probed with phosphotyrosine antibody (α-PY). […] Reprobing of the blot with HER2 antibody confirms equal loading of proteins. SHC is indicated by an arrow.

The subject of assay [8] is SHC tyrosine phosphorylation in PC 12 cells. Description: SHC tyrosine phosphorylation in PC 12 cells. Type of assay: cell-based, rat. As to conditions: 10 μM AG825, HRG stimulation. The protocol:
as §4

Another assay deals with C6 gliomas. Put plainly: Tumor invasion assay, C6 gliomas. Type of assay: cell-based, rat. As to conditions: 5 μg/ml HRG, 16 h, PD98059 25 μM 30 min pretreatment or retroviral PYK2-KM. The protocol:
(§5) FIG. 7: PYK2-KM inhibits tumor invasion upon HRG stimulation. a, C6 gliomas were retrovirally infected with either a control vector pLXSN (mock), PYK2, dominant negative PYK2 mutant PYK2-KM, or pretreated with a MEK1 inhibitor PD98059 (25 μM) for 30 min, and tumor invasion assays were performed (see Methods section). b, Invasion is supressed to the same extent by PD98059 and by overexpression of PYK2-KM (p>0.95). c, SF767 gliomas were retrovirally infected with pLXSN or PYK2-KM. d, Tumor invasion is supressed by overexpresssion of PYK2-KM in SF767 (p<0.008), and also in SF763 cell line (p<0.005), as shown by using the same assay. Representative bright-field micrographs of cells that migrated through the 8 μm filters in 16 h are shown. […]
(§6) Amphotrophic virus titer, which was generated by transient transfection of retrovirus expression plasmids into the virus producer cell line PhoenixA (ATCC), was determined by infecting NIH-3T3 cells with serial dilutions of retrovirus-containing, cell-free PhoenixA supernatants and counting the number of G418-resistant colonies. […]
(§7) Tumor invasion assay was performed as describ d previously (31). […] Following 16 h of incubation, non-invading cells were removed with cotton swabs, whereas invading cells were fixed, stained with Crystal violet and counted under bright-field illumination using an Axiovert135 inverted microscope (Zeiss). […]

Another assay concerns SF767 gliomas. Put plainly: Tumor invasion assay, SF767 gliomas. The settings on record: HRG, 16 h, retroviral infection with PYK2-KM. Type of assay: cell-based, human. The method, then:
as §5, §6, §7

For a further assay, the system named is SF763 cell line. Description: Tumor invasion assay, SF763 cell line. Type of assay: cell-based, human. As to conditions: HRG, 16 h, retroviral infection with PYK2-KM. The protocol:
as §5, §6, §7

The subject of assay [9] is ERK-2 phosphorylation in C6 glioma cells. Description: Phosphorylated ERK-2 in whole cell lysates of C6 glioma cells. Type of assay: cell-based, rat. The settings on record: in parallel to the tumor invasion assay, PD98059 or PYK2-KM. The method, then: (§8) FIGS. 15, 16: Whole cell lysates (WCL) of C6 glioma cells were prepared in parallel to the tumor invasion assay and the content of phosphorylated ERK-2 was assessed by probing with a specific phospho-ERK2 antibody (upper panel). To confirm equal loading of proteins the blot was reprobed with a pan-ERK antibody. (16) The same experimental procedure was used as in (15) for SF767 cells. Phosphorylated ERK-2 is indicated by an arrow. Dominant-negative PYK2-KM abrogates ERK-2 activity to the same extent as MEK-1 inhibitor PD98059.
(§9) Proteins were fractionated by SDS-PAGE and electrophoretically transferred to nitrocellulose filters. For immunoblot analysis, nitrocellulose filters were first incubated with mouse monoclonal or rabbit polyclonal primary antibodies for 3 h at 4° C. Next, a HRP-coupled goat anti-mouse or goat anti-rabbit secondary antibody was added (Biorad), followed by an enhanced chemoluminescence (ECL) substrate reaction (Amersham). The substrate reaction was detected on Kodak X-Omat film. Filters that were used more than once with different antibodies were stripped according to the manufacturer's protocol, blocked and reprobed.

Assay [10] relates to ERK-2 phosphorylation in SF767 cells. Put plainly: Phosphorylated ERK-2 in whole cell lysates of SF767 cells. Type of assay: cell-based, human. As to conditions: in parallel to the tumor invasion assay, PD98059 or PYK2-KM. The method, then:
as §8, §9

In the case of `Cc1ccc(-c2nn(C(C)(C)C)c3ncnc(N)c23)cc1` [PP1], the “Ionomycin-induced tyrosine phosphorylation of PYK2” value in [1] (5 μM IONO 5 min, PP1 5 μM 30 min pretreatment) is reported as “dependent on c-src activity”. Besides, in [1], the “HRG-induced tyrosine phosphorylation of PYK2” value is listed as “independent of c-src”.

Consider `COc1cc(/C=C(\C#N)C(N)=O)cc(CSc2nc3ccccc3s2)c1O` [AG825], for which, in [1], the “HRG-induced tyrosine phosphorylation of PYK2” value is reported as “attenuated”. In addition, the “Amount of PYK2 that coprecipitates with HER3” value in [2] is listed as “decreases”. Moreover, in assay [3], the “HRG-stimulated tyrosine-phosphorylation of SHC” value was “diminished, but not fully abrogated”. The “HRG-stimulated ERK-2 activity” value was “diminished, but not fully abrogated” in assay [4] and “attenuated” in [5]. The “Basal ERK-2 activity” value in assay [5] is on record as “not influenced”. Also, in assay [6], the “Pl3-K activity upon HRG stimulation” value is “diminished”. Also, in [7], the “Tyrosine phosphorylation of HER2” value is “completely inhibits”. Further, the “Tyrosine phosphorylation of SHC” value in assay [8] is listed as “completely inhibits”.

In the case of “PYK2-KM: dominant negative, kinase-inactive PYK2 mutant K457M, expressed by retroviral infection or Tet-off system”, in [5], the “HRG-stimulated ERK-2 activity” value is “abrogated”. Further, the “Basal ERK-2 activity” value in [5] is “abrogated”. Further, the “Pl3-K activity upon HRG stimulation” value in assay [6] is given as “attenuates”. In the assay on C6 gliomas, the “Tumor invasion (invasiveness)” value was “comparable abrogation of the invasive phenotype”. For the same compound, the “Tumor invasion (invasive behaviour)” value with SF767 gliomas and in the assay on SF763 cell line was “strong inhibition” in each case. In addition, the ERK-2 phosphorylation entry in assay [9] and in assay [10] was “decrease” throughout.

For `COc1cccc(-c2cc(=O)c3ccccc3o2)c1N` [PD98059], the “Tumor invasion (invasiveness)” value in the assay with C6 gliomas is listed as “strongly attenuated”. For the same compound, the ERK-2 phosphorylation result in assay [9] and in [10] was “decrease” in each case.

(Values after patent US20040082510A1, “Pyk2 phosphorylation by her3 induces tumor invasion” (priority 2001, published 2004).)
